The structures appear in SMILES notation. A value given as a limit tells only on which side of the number the result lay.

Assay [1] has as its target T1, catalytic domain of MMP-13 enzyme (Homo sapiens, UniProt P45452).
T1 construct: catalytic domain of MMP-13 enzyme (produced by Alantos or commercially available from Invitek (Berlin), Cat. # 30100812); purchased Invitek (Berlin) 30100812
Put plainly: Assay for determining MMP-13 inhibition (fluorescent substrate). Format: biochemical. The note with it: read-out: MMP-13 Activity (IC50 MMP-13), Group. The protocol: The typical assay for MMP-13 activity is carried out in assay buffer comprised of 50 mM Tris, pH 7.5, 150 mM NaCl, 5 mM CaCl2 and 0.05% Brij-35. Different concentrations of tested compounds are prepared in assay buffer in 50 μL aliquots. 10 μL of a 50 nM stock solution of catalytic domain of MMP-13 enzyme (produced by Alantos or commercially available from Invitek (Berlin), Cat. # 30100812) is added to the compound solution. The mixture of enzyme and compound in assay buffer is thoroughly mixed and incubated for 10 min at room temperature. Upon the completion of incubation, the assay is started by addition of 40 μl of a 12.5 μM stock solution of MMP-13 fluorescent substrate (Calbiochem, Cat. No. 444235). The time-dependent increase in fluorescence is measured at the 320 nm excitation and 390 nm emission by automatic plate multireader. The IC50 values are calculated from the initial reaction rates.

The next assay concerns the target T2, activated MMP-8 enzyme (Homo sapiens, UniProt P22894).
T2 construct: purchased Calbiochem 444229
Put plainly: Assay for determining MMP-8 inhibition (OmniMMP fluorescent substrate). Format: biochemical. Conditions: read-out: MMP-8 Activity (IC50 MMP-8), Group. As to the method:
The typical assay for MMP-8 activity is carried out in assay buffer comprised of 50 mM Tris, pH 7.5, 150 mM NaCl, 5 mM CaCl2 and 0.05% Brij-35. Different concentrations of tested compounds are prepared in assay buffer in 50 μL aliquots. 10 μL of a 50 nM stock solution of activated MMP-8 enzyme (Calbiochem, Cat. No. 444229) is added to the compound solution. The mixture of enzyme and compound in assay buffer is thoroughly mixed and incubated for 10 min at 37° C. Upon the completion of incubation, the assay is started by addition of 40 μL of a 10 μM stock solution of OmniMMP fluorescent substrate (Biomol, Cat. No. P-126). The time-dependent increase in fluorescence is measured at the 320 nm excitation and 390 nm emission by an automatic plate multireader at 37° C. The IC50 values are calculated from the initial reaction rates.

T2 sequence (P22894 101-467): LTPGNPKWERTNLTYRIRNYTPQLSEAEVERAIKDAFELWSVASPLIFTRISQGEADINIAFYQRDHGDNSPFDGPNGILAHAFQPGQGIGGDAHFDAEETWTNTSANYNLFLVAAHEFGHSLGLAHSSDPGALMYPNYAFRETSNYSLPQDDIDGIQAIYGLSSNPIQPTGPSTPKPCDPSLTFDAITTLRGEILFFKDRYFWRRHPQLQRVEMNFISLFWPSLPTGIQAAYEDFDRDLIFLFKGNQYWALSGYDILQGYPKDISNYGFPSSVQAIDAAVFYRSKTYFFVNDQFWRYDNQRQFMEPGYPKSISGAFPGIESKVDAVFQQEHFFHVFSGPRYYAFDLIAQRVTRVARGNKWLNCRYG

For `Cn1ncc2c(=O)[nH]c(C(=O)NCc3ccc4c(c3)NC(=O)CO4)nc21` [2/111], the IC50 (usually the midpoint of a concentration-inhibition curve) in assay [1] is < 100 nM.
On to `CNC(=O)Cc1csc2nc(C(=O)NCc3ccc4c(c3)NC(=O)CO4)[nH]c(=O)c12` [2/157], for which the IC50 is < 100 nM in assay [1] and < 250 nM at activated MMP-8 enzyme.
For `Cc1c(C(=O)Nc2ccccc2)sc2nc(C(=O)NCc3ccc4c(c3)NC(=O)CO4)[nH]c(=O)c12` [2/62] the same measures were < 100 nM and 250 to 20000 nM.
In the case of `Cc1csc(-c2csc3nc(C(=O)NCc4ccc5c(c4)NC(=O)CO5)[nH]c(=O)c23)n1` [2/379], the IC50 in assay [1] was < 100 nM.
As to `Cc1c(C(C)O)sc2nc(C(=O)NCc3ccc4c(c3)NC(=O)CO4)[nH]c(=O)c12` (stereo not shown) [Example 21], the 50% inhibitory concentration (IC50) was < 100 nM in assay [1] and < 250 nM at activated MMP-8 enzyme.
For `O=C(NCc1ccc2c(c1)OCO2)c1nc2ccccc2c(=O)[nH]1` [Example 2/5] the same measures were < 100 nM and 250 to 20000 nM.
Take `Cc1noc2nc(C(=O)NCc3ccc4c(c3)NC(=O)CO4)[nH]c(=O)c12` [39/12]: the IC50 in assay [1] was in the range of 100 to 20000 nM.
On to `Cc1sc2nc(C(=O)NCc3ccc4c(c3)NC(=NO)CO4)[nH]c(=O)c2c1C` [2/275], for which the IC50 in assay [1] was < 100 nM; on activated MMP-8 enzyme, < 250 nM.
Take `Cc1c(CCC(=O)O)sc2nc(C(=O)NCc3ccc4c(c3)NC(=O)CO4)[nH]c(=O)c12` [4/8]: the IC50 at activated MMP-8 enzyme is < 250 nM.
Regarding `Cc1sc2nc(C(=O)NCc3cc(Br)c4c(c3)NC(=O)CO4)[nH]c(=O)c2c1C` [2/281], in assay [1], the concentration for half-maximal inhibition (IC50) was < 100 nM.
The same measure, in the same setting: the same measure for `Cc1nc2c(=O)[nH]c(C(=O)NCc3ccc4c(c3)NC(=O)CO4)nc2s1` [2/179]: < 100 nM; for `Cc1nc2c(=O)[nH]c(C(=O)NCc3ccc4c(c3)CN(c3c(N)c(=O)c3=O)CC4)nc2s1` [2/180]: < 100 nM.
As to `O=C(O)CCC(=O)NCc1ccc2nc(C(=O)NCc3ccc4c(c3)NC(=O)CO4)[nH]c(=O)c2c1` [Example 17], the IC50 in assay [1] is < 100 nM; on activated MMP-8 enzyme it was < 250 nM.
With `Cc1c(C(=O)O)sc2nc(C(=O)NCc3ccc4c(c3)NC(=O)CO4)[nH]c(=O)c12` [4/2], in assay [1], the half-maximal inhibitory concentration (IC50) lay within 100 to 20000 nM.
In the case of `CC(=O)OCc1sc2nc(C(=O)NCc3ccc4c(c3)N(C(C)=O)CCO4)[nH]c(=O)c2c1C` [Example 24], the IC50 in assay [1] is < 100 nM.
Take `O=C1COc2ccc(CNC(=O)c3nc4ccc([N+](=O)[O-])cc4c(=O)[nH]3)cc2N1` [Example 2/57]: the IC50 in assay [1] was < 100 nM; at activated MMP-8 enzyme, 250 to 20000 nM.
Consider `O=C1COc2ccc(CNC(=O)c3nc4cccc(C(F)(F)F)c4c(=O)[nH]3)cc2N1` [39/1], for which, in assay [1], the IC50 is < 100 nM.
Still for that read-out and setting: the result for `O=C1COc2ccc(CNC(=O)c3nc4c(Br)cc(F)cc4c(=O)[nH]3)cc2N1` [39/23] reads < 100 nM; that for `O=C1COc2cc(CNC(=O)c3nc4ccccc4c(=O)[nH]3)ccc2N1` [2/205], 100 to 20000 nM.
Same read-out and setting: the same measure for `NCc1ccc2nc(C(=O)NCc3ccc4c(c3)NC(=O)CO4)[nH]c(=O)c2c1` [Example 15]: < 100 nM.
For `C[C@@H](Nc1cccc2nc(C(=O)NCc3ccc4c(c3)NC(=O)CO4)[nH]c(=O)c12)c1ccccc1` [36/2], the IC50 is < 100 nM in assay [1] and < 250 nM at activated MMP-8 enzyme.
Turning to `Cc1c(CO)sc2nc(C(=O)NCc3ccc4c(c3)NC(=O)CO4)[nH]c(=O)c12` [Example 20a], the IC50 in assay [1] is < 100 nM.
For `C[C@H](O)CNc1cccc2nc(C(=O)NCc3ccc4c(c3)NC(=O)CO4)[nH]c(=O)c12` [36/13], on activated MMP-8 enzyme, the IC50 is < 250 nM.
Same read-out and setting: the same measure for `NC(=O)Cc1csc2nc(C(=O)NCc3ccc4c(c3)NC(=O)CO4)[nH]c(=O)c12` [Example 2/156]: < 250 nM.
For `CC(=O)N1CCOc2ccc(CNC(=O)c3nc4sc(CO)c(C)c4c(=O)[nH]3)cc21` [Example 25], the IC50 in assay [1] was in the range of 100 to 20000 nM.
Still for that read-out and setting: the result for `Cc1sc2nc(C(=O)NCc3ccc4c(c3)NS(=O)(=O)CO4)[nH]c(=O)c2c1C` [Example 38] reads 100 to 20000 nM.
For the compound `CCOC(=O)c1sc2nc(C(=O)NCc3ccc4c(c3)NC(=O)CO4)[nH]c(=O)c2c1C` [2/28], the 50% inhibitory concentration (IC50) in assay [1] was < 100 nM; at activated MMP-8 enzyme, 250 to 20000 nM.
For `O=C1COc2ccc(CNC(=O)c3nc4cc(C(F)(F)F)ccc4c(=O)[nH]3)cc2N1` [2/43] the same measures were 100 to 20000 nM and < 250 nM.
For `O=C1COc2ccc(CNC(=O)c3nc4nonc4c(=O)[nH]3)cc2N1` [39/3], the IC50 in assay [1] was in the range of 100 to 20000 nM.
For `C[C@@H](Nc1cccc2nc(C(=O)NCc3ccc4c(c3)NC(=O)CO4)[nH]c(=O)c12)C(=O)OC(C)(C)C` [36/6], the IC50 at activated MMP-8 enzyme is < 250 nM.
`CCOC(=O)c1sc2nc(C(=O)NCc3ccc4c(c3)NCCO4)[nH]c(=O)c2c1C` [Example 20b]: in assay [1], the IC50 was 100 to 20000 nM.
For `O=C(NCc1ccc2c(c1)CCO2)c1nc2ccccc2c(=O)[nH]1` [2/7], the half-inhibitory concentration (IC50) in assay [1] is < 100 nM; at activated MMP-8 enzyme, 250 to 20000 nM.
For `C[C@@H](O)CNc1cccc2nc(C(=O)NCc3ccc4c(c3)NC(=O)CO4)[nH]c(=O)c12` [36/12] the same measures were < 100 nM and < 250 nM.
For `Nc1ccc2nc(C(=O)NCc3ccc4c(c3)NC(=O)CO4)[nH]c(=O)c2c1` [Example 5] the same measures were < 100 nM and < 250 nM.
For `O=C(NCc1ccc2c(c1)OC(F)(F)O2)c1nc2ccccc2c(=O)[nH]1` [2/6] the same measures were 100 to 20000 nM and 250 to 20000 nM.
On to `Cc1sc2nc(C(=O)NCc3ccc4c(c3)NC(=O)CO4)[nH]c(=O)c2c1C(=O)O` [4/1], for which, in assay [1], the IC50 was 100 to 20000 nM.
For `CCc1ccc2nc(C(=O)NCc3ccc4c(c3)NC(=O)CO4)[nH]c(=O)c2c1` [2/70], the IC50 is < 100 nM in assay [1] and < 250 nM at activated MMP-8 enzyme.
`COc1cccc2c(=O)[nH]c(C(=O)NCc3ccc4c(c3)NC(=O)CO4)nc12` [39/21]: in assay [1], the IC50 is 100 to 20000 nM.
The same measure, in the same setting: the same measure for `O=C1COc2ccc(CNC(=O)c3nc4ccc(C#Cc5ccccc5)cc4c(=O)[nH]3)cc2N1` [Example 8/1]: < 100 nM.
As for `O=C1COc2ccc(CNC(=O)c3nc4ccc(CNC(=O)C56C7C8C5C5C6C7C85C(=O)O)cc4c(=O)[nH]3)cc2N1` (stereo not shown) [4/3], the IC50 in assay [1] was < 100 nM; at activated MMP-8 enzyme, < 250 nM.
For `O=C1COc2ccc(CNC(=O)c3nc4scc(-c5ccccc5Cl)c4c(=O)[nH]3)cc2N1` [2/101] the same measures were < 100 nM and 250 to 20000 nM.
For `O=C1COc2cc(CNC(=O)c3nc4ccc(Cl)cc4c(=O)[nH]3)ccc2N1` [2/27] the same measures were 100 to 20000 nM and 250 to 20000 nM.
Turning to `O=C1COc2ccc(CNC(=O)c3nc4sccc4c(=O)[nH]3)cc2N1` [Example 1], the IC50 in assay [1] is < 100 nM.
Still for that read-out and setting: the same measure for `O=C1COc2ccc(CNC(=O)c3nc4ccc(C(=O)Nc5ccccc5)cc4c(=O)[nH]3)cc2N1` [31/1]: 100 to 20000 nM; for `Cn1c(C(=O)NCc2ccc3c(c2)NC(=O)CO3)nc2ccccc2c1=O` [2/50]: 100 to 20000 nM; for `Cc1nsc2nc(C(=O)NCc3ccc4c(c3)NC(=O)CO4)[nH]c(=O)c12` [2/136]: 100 to 20000 nM.
On to `Nc1c(N2CCc3ccc(CNC(=O)c4nc5cc(F)c(F)cc5c(=O)[nH]4)cc3C2)c(=O)c1=O` [39/24], for which the IC50 in assay [1] was < 100 nM; on activated MMP-8 enzyme, 250 to 20000 nM.
Turning to `NC(=O)c1ccc2c(=O)[nH]c(C(=O)NCc3ccc4c(c3)NC(=O)CO4)nc2c1` [13/1], the half-inhibitory concentration (IC50) in assay [1] lay within 100 to 20000 nM.
On the same count and under the same terms, the result for `O=C1COc2ccc(CNC(=O)c3nc4ccc(C(=O)O)cc4c(=O)[nH]3)cc2N1` [Example 3] reads < 100 nM; that for `NC(=O)[C@@H]1CCCN1c1cccc2nc(C(=O)NCc3ccc4c(c3)NC(=O)CO4)[nH]c(=O)c12` [36/8], < 100 nM.
The same measure, in the same setting: the result for `CCOC(=O)Cc1c([N+](=O)[O-])sc2nc(C(=O)NCc3ccc4c(c3)CN(c3c(N)c(=O)c3=O)CC4)[nH]c(=O)c12` [2/164] reads 100 to 20000 nM.
Take `Cc1cccc2nc(C(=O)NCc3ccc(F)c(CNc4c(N)c(=O)c4=O)c3)[nH]c(=O)c12` [2/17]: the half-inhibitory concentration (IC50) at activated MMP-8 enzyme fell in the range of 250 to 20000 nM.
As to `O=C1COc2ccc(CNC(=O)c3nc4snnc4c(=O)[nH]3)cc2N1` [39/6], the IC50 in assay [1] fell in the range of 100 to 20000 nM.
Consider `Cc1cccc2nc(C(=O)NCc3cccc(CNc4c(N)c(=O)c4=O)c3)[nH]c(=O)c12` [Example 2/15], for which the IC50 on activated MMP-8 enzyme is 250 to 20000 nM.
Regarding `O=C1COc2ccc(CNC(=O)c3nc4scc(-c5ccc(-c6ccccc6)cc5)c4c(=O)[nH]3)cc2N1` [2/138], in assay [1], the IC50 was < 100 nM.
For the compound `COc1cc2nc(C(=O)NCc3ccc4c(c3)NC(=O)CO4)[nH]c(=O)c2cc1OC` [2/65], in assay [1], the half-inhibitory concentration (IC50) was in the range of 100 to 20000 nM.
Same read-out and setting: the result for `O=C1COc2ccc(CNC(=O)c3nc4ccc(-c5nnn[nH]5)cc4c(=O)[nH]3)cc2N1` [Example 11] reads < 100 nM.
